Patent US11566007B2, “Ras inhibitors” (Revolution Medicines, Inc., priority 2019, dated 2023)
Values joined by “and” are separate entries in the source; they are usually repeats but may differ in a detail not shown here. Equal entries are not always repeated.

Key:
KRAS G12S = KRAS G12S (Homo sapiens (Human), UniProt P01116+P62937, G12S); experiment: Ras-Raf (BRAF RBD) disruption / FRET / MOA assay, KRAS G12S; type: biochemical; settings: Ras-Raf disruption/FRET/MOA assay; class symbols; read-out: KRAS G12S FRET data IC50
Chain of KRAS G12S (P01116-2 other isoform, or with tags, fused parts or gaps G12S): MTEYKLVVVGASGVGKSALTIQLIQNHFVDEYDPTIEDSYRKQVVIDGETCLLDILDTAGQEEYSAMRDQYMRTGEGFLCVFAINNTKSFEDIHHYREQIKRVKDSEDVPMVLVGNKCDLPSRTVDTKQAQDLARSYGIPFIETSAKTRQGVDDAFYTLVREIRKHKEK
Chain of KRAS G12S (P62937 whole entry): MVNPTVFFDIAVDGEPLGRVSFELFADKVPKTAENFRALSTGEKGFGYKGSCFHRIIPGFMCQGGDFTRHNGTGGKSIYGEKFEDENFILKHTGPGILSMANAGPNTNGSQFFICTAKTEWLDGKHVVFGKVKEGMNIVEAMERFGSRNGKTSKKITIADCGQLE
How it was run: (§1)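 Compounds, top final concentration 30 μM in 10-point 3-fold series, incubated 3 hours at 25° C with nucleotide-loaded Ras, cyclophilin A and BRAF RBD.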

KRAS Q61H = KRAS Q61H (Homo sapiens (Human), UniProt P01116+P62937, Q61H); experiment: Ras-Raf (BRAF RBD) disruption / FRET / MOA assay, KRAS Q61H; type: biochemical; settings: Ras-Raf disruption/FRET/MOA assay; class symbols; read-out: KRAS Q61H FRET data IC50
Chain of KRAS Q61H (P01116-2 other isoform, or with tags, fused parts or gaps Q61H): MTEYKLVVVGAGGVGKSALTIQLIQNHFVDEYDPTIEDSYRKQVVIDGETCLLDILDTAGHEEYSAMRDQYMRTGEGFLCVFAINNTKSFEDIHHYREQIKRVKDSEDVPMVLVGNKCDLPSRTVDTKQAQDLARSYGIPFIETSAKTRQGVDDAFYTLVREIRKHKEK
Chain of KRAS Q61H (P62937 whole entry): as the sequence (P62937 whole entry) above
How it was run: (§2)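 TR-FRET disruption of nucleotide-loaded Ras binding to BRAF RBD via compound-driven ternary complex with cyclophilin A. Compound as 10-point 3-fold series from 30 μM final, 3 h at 25° C, then anti-His Eu-W1024 (10 nM) and anti-GST allophycocyanin (50 nM) for 1.5 h. IC50 from decreased FRET ratio versus DMSO.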

NCI-H358 (K-Ras G12C) = experiment: CellTiter-Glo cell viability assay, NCI-H358; type: cell-based, human; settings: Homo sapiens, NCI-H358, 120 h, NCI-H358, 5-day treatment; class symbols; read-out: Additional H358 Cell Viability assay data (K-Ras G12C, IC50)
How it was run: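 Steps: compound dispensed into wells holding cells; incubation to day 5; ~30 min room-temperature equilibration; luminescence read; sample signal divided by mean DMSO signal, times 100; four-parameter logistic curve fit.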

KRAS WT = KRAS WT (Homo sapiens (Human), UniProt P01116+P62937); experiment: Ras-Raf (BRAF RBD) disruption / FRET / MOA assay, KRAS WT; type: biochemical; settings: read-out: IC50* KRAS WT FRET data
Chain of KRAS WT (P01116-2 other isoform, or with tags, fused parts or gaps): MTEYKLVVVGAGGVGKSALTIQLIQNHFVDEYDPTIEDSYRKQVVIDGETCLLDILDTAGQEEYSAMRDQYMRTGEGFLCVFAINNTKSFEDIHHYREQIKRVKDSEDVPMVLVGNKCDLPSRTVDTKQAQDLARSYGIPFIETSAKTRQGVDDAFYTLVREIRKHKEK
Chain of KRAS WT (P62937 whole entry): as the sequence (P62937 whole entry) above
How it was run: as §1

NRAS WT = NRAS WT (Homo sapiens (Human), UniProt P01111+P62937); experiment: Ras-Raf (BRAF RBD) disruption / FRET / MOA assay, NRAS WT; type: biochemical; settings: read-out: IC50* NRAS WT FRET data
Chain of NRAS WT (P01111 whole entry): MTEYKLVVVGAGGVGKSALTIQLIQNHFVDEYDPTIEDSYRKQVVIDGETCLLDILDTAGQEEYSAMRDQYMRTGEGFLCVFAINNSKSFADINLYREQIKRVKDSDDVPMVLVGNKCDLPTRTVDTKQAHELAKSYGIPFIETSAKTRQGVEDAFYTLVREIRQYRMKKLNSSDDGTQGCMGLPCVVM
Chain of NRAS WT (P62937 whole entry): as the sequence (P62937 whole entry) above
How it was run: as §2

NRAS G12C = NRAS G12C (Homo sapiens (Human), UniProt P01111+P62937, G12C); experiment: Ras-Raf (BRAF RBD) disruption / FRET / MOA assay, NRAS G12C; type: biochemical; settings: read-out: IC50* NRAS G12C FRET data
Chain of NRAS G12C (P01111 whole entry G12C): as the sequence (P01111 whole entry) above, with G12C counted along it
Chain of NRAS G12C (P62937 whole entry): as the sequence (P62937 whole entry) above
How it was run: as §1

NRAS Q61K = NRAS Q61K (Homo sapiens (Human), UniProt P01111+P62937, Q61K); experiment: Ras-Raf (BRAF RBD) disruption / FRET / MOA assay, NRAS Q61K; type: biochemical; settings: NRAS Q61K; Ras-Raf disruption/FRET/MOA assay; read-out: IC50* NRAS Q61K FRET data
Chain of NRAS Q61K (P01111 whole entry Q61K): as the sequence (P01111 whole entry) above, with Q61K counted along it
Chain of NRAS Q61K (P62937 whole entry): as the sequence (P62937 whole entry) above
How it was run: as §2

| SMILES | IC50 (KRAS G12S) | IC50 (KRAS Q61H) | IC50 (NCI-H358 (K-Ras G12C)) | IC50 (KRAS WT) | IC50 (NRAS WT) | IC50 (NRAS G12C) | IC50 (NRAS Q61K) |
| --- | --- | --- | --- | --- | --- | --- | --- |
| C=CC(=O)N1CCN(C(=O)N(C)[C@H](C(=O)N[C@H]2Cc3nc(cs3)-c3ccc4c(c3)c(c(-c3cccnc3[C@H](C)OC)n4CC)CC(C)(C)COC(=O)[C@@H]3CCCN(N3)C2=O)C(C)C)[C@@H]2CC[C@@H]21 (atropisomer, axis not shown) [Example A718] | 100 to 1000 nM | 10 to 100 nM | < 10 nM | 100 to 1000 nM | 100 to 1000 nM | 100 to 1000 nM | 10 to 100 nM |
| C=CC(=O)N1CC[C@]2(CCN(C(=O)N(C)[C@H](C(=O)N[C@H]3Cc4nc(cs4)-c4ccc5c(c4)c(c(-c4cccnc4[C@H](C)OC)n5CC)CC(C)(C)COC(=O)[C@@H]4CCCN(N4)C3=O)C(C)C)C2)C1 (atropisomer, axis not shown) [Example A719] | 100 to 1000 nM | 10 to 100 nM | 10 to 100 nM | 100 to 1000 nM | 10 to 100 nM | 10 to 100 nM | 10 to 100 nM |
| C=CC(=O)N1CC(OC[C@H](C(=O)N[C@H]2Cc3cc(F)cc(c3)-c3ccc4c(c3)c(c(-c3cccnc3[C@H](C)OC)n4CC(F)(F)F)CC(C)(C)COC(=O)[C@@H]3CCCN(N3)C2=O)C(C)C)C1 (atropisomer, axis not shown) [Example A725] | 1000 to 10000 nM | 100 to 1000 nM | 10 to 100 nM | 1000 to 10000 nM | 1000 to 10000 nM | 100 to 1000 nM | 1000 to 10000 nM |
| C=CC(=O)N1CC[C@H](N(C)C(=O)N(C)[C@H](C(=O)N[C@H]2Cc3nc(cs3)-c3ccc4c(c3)c(c(-c3cccnc3[C@H](C)OC)n4CC)CC(C)(C)COC(=O)[C@@H]3CCCN(N3)C2=O)C(C)C)C1 (atropisomer, axis not shown) [Example A728] | 100 to 1000 nM | 100 to 1000 nM | 10 to 100 nM | 100 to 1000 nM | 100 to 1000 nM | 100 to 1000 nM | 100 to 1000 nM |
| C=CC(=O)N1CCN(C(=O)N(C)[C@H](C(=O)N[C@H]2Cc3nc(cs3)-c3ccc4c(c3)c(c(-c3cccnc3[C@H](C)OC)n4CC)CC(C)(C)COC(=O)[C@@H]3CCCN(N3)C2=O)C(C)C)[C@H]2CC[C@H]21 (atropisomer, axis not shown) [Example A734] | 10 to 100 nM | 10 to 100 nM | 10 to 100 nM | 10 to 100 nM | 10 to 100 nM | 10 to 100 nM | 10 to 100 nM |
| C=CC(=O)N1CC2(C1)OCCCN2C(=O)N(C)[C@H](C(=O)N[C@H]1Cc2nc(cs2)-c2ccc3c(c2)c(c(-c2cccnc2[C@H](C)OC)n3CC)CC(C)(C)COC(=O)[C@@H]2CCCN(N2)C1=O)C(C)C (atropisomer, axis not shown) [Example A735, 2-acryloyl-N-((2S)-1-(((6^3S,4S,Z)-1^1-ethyl-1^2-(2-((S)-1-methoxyethyl)pyridin-3-yl)-10,10-dimethyl-5,7-dioxo-6^1,6^2,6^3,6^4,6^5,6^6-hexahydro-1^1H-8-oxa-2(4,2)-thiazola-1(5,3)-indola-6(1,3)-pyridazinacycloundecaphane-4-yl)amino)-3-methyl-1-oxobutan-2-yl)-N-methyl-5-oxa-2,9-diazaspiro[3.5]nonane-9-carboxamide] | > 10000 nM | 1000 to 10000 nM | < 10 nM | 1000 to 10000 nM | 1000 to 10000 nM | < 10 nM | 1000 to 10000 nM |
| C=CC(=O)N(C)[C@@H]1C[C@H]1N(C)C(=O)N(C)[C@H](C(=O)N[C@H]1Cc2nc(cs2)-c2ccc3c(c2)c(c(-c2cccnc2[C@H](C)OC)n3CC)CC(C)(C)COC(=O)[C@@H]2CCCN(N2)C1=O)C(C)C (atropisomer, axis not shown) [Example A739] | 1000 to 10000 nM | 10 to 100 nM | 10 to 100 nM | 100 to 1000 nM | 100 to 1000 nM | 100 to 1000 nM | 10 to 100 nM |
| C=CC(=O)N1CC[C@H](C(=O)N(C)[C@H](C(=O)N[C@H]2Cc3cccc(c3)-c3ccc4c(c3)c(c(-c3cnccc3[C@H](C)OC)n4CC)CC(C)(C)COC(=O)[C@@H]3CCCN(N3)C2=O)C(C)C)C1 (single isomer, unassigned) [Example A115] | 1000 to 10000 nM | 100 to 1000 nM | 10 to 100 nM | 1000 to 10000 nM | 1000 to 10000 nM | 10 to 100 nM and 100 to 1000 nM | 1000 to 10000 nM |
| C=CC(=O)N1CC[C@H](C(=O)N(C)[C@H](C(=O)N[C@H]2Cc3cc(O)cc(c3)-c3ccc4c(c3)c(c(-c3cc(N5CC(OC)C5)ccn3)n4CC)CC(C)(C)COC(=O)[C@@H]3CCCN(N3)C2=O)C(C)C)C1 [Example A104] | 1000 to 10000 nM | 100 to 1000 nM | < 10 nM | 1000 to 10000 nM | 1000 to 10000 nM | 10 to 100 nM | 1000 to 10000 nM |
| C=CC(=O)N1CC[C@H](C(=O)N(C)[C@H](C(=O)N[C@H]2Cc3cc(O)cc(c3)-c3ccc4c(c3)c(c(-c3cc(C#N)cnc3COC)n4CC)CC(C)(C)COC(=O)[C@@H]3CCCN(N3)C2=O)C(C)C)C1 [Example A105] | 100 to 1000 nM | 10 to 100 nM | 10 to 100 nM | 100 to 1000 nM | 100 to 1000 nM | 10 to 100 nM | 100 to 1000 nM |
| C=CC(=O)N1CC[C@H](C(=O)N(C)[C@H](C(=O)N[C@H]2Cc3cc(O)cc(c3)-c3ccc4c(c3)c(c(-c3cn(C)cn3)n4CC)CC(C)(C)COC(=O)[C@@H]3CCCN(N3)C2=O)C(C)C)C1 [Example A113] | 1000 to 10000 nM | 1000 to 10000 nM | 100 to 1000 nM | > 10000 nM | > 10000 nM | 100 to 1000 nM | > 10000 nM |
| C=CS(=O)(=O)N1CC[C@H](C(=O)N(C)[C@H](C(=O)N[C@H]2Cc3cc(O)cc(c3)-c3ccc4c(c3)c(c(-c3cncnc3)n4CC)CC(C)(C)COC(=O)[C@@H]3CCCN(N3)C2=O)C(C)C)C1 [Example A172] | 1000 to 10000 nM | 100 to 1000 nM | 10 to 100 nM | 1000 to 10000 nM | 1000 to 10000 nM | 10 to 100 nM | 1000 to 10000 nM |
| CCn1c(-c2cccnc2[C@H](C)OC)c2c3cc(ccc31)-c1cccc(c1)C[C@H](NC(=O)[C@H](C(C)C)N1CC[C@@]3(CCN(C(=O)C#C[C@@H]4COCCN4C4COC4)C3)C1=O)C(=O)N1CCC[C@H](N1)C(=O)OCC(C)(C)C2 [Example A566] | 1000 to 10000 nM | 100 to 1000 nM | < 10 nM | 1000 to 10000 nM | 1000 to 10000 nM | 10 to 100 nM | 1000 to 10000 nM |
| C=CC(=O)N1CCC2(C1)CN(C(=O)N(C)[C@H](C(=O)N[C@H]1Cc3nc(cs3)-c3ccc4c(c3)c(c(-c3cccnc3[C@H](C)OC)n4CC(F)(F)F)CC(C)(C)COC(=O)[C@@H]3CCCN(N3)C1=O)C(C)C)C2 [Example A603] | 100 to 1000 nM | 10 to 100 nM | 10 to 100 nM | 10 to 100 nM | 10 to 100 nM | 10 to 100 nM | 10 to 100 nM |
| CCn1c(-c2cccnc2[C@H](C)OC)c2c3cc(ccc31)-c1cccc(c1)C[C@H](NC(=O)[C@H](C(C)C)N(C)C(=O)N1CCC13CN(C(=O)C#CC(C)(C)N(C)C)C3)C(=O)N1CCC[C@H](N1)C(=O)OCC(C)(C)C2 [Example A672] | 100 to 1000 nM | 10 to 100 nM | 10 to 100 nM | 100 to 1000 nM | 100 to 1000 nM | 10 to 100 nM | 100 to 1000 nM |
| C=CC(=O)N(C)[C@H]1CC1N(C)C(=O)N(C)[C@H](C(=O)N[C@H]1Cc2nc(cs2)-c2ccc3c(c2)c(c(-c2cccnc2[C@H](C)OC)n3CC)CC(C)(C)COC(=O)[C@@H]2CCCN(N2)C1=O)C(C)C (stereo partly shown) [Example A738] | 1000 to 10000 nM | 100 to 1000 nM | < 10 nM | 100 to 1000 nM | 100 to 1000 nM | 100 to 1000 nM | 100 to 1000 nM |
